The values that follow come from patent US11116774B2, “Modulators of toll-like receptors for the treatment of HIV” (Gilead Sciences, Inc., priority 2014, dated 2021).

In test [1] the test system is HIV-1 expression in PBMC cultures from HIV-1 infected donors on cART. Briefly: Induced HIV-1 expression in PBMC cultures from HIV-1 infected donors on cART (Example 208). It counts as cell-based, human. The note with it: Tables 7-11; for fold induction at 0.01 µM / fold induction at 0.156 µM / fold induction at 2.5 µM: Human immunodeficiency virus 1, PBMC; for fold induction at 0.01 µM: read-out: Fold HIV-1 Induction, Geometric Mean, 0.01 μM. Here is the method: Isolated PBMCs were treated with various concentrations (0.1, 1, and 10 μM) of the TLR7 modulating compounds (compounds of Example 4 and Example 49) or dimethyl sulfoxide (DMSO) treated (vehicle control) for 4 to 5 days. The cultures were maintained in the presence of antivirals (elvitegravir and efavirenz at 100 nM each) to prevent viral spread and amplification in order to measure initial virus production (latency reversal) created by the TLR7 modulating compounds. At the end of the incubation period cell-free culture supernatants were harvested and HIV-1 RNA levels were quantified by the COBAS® AmpliPrep/COBAS® TaqMan HIV-1 Test, v2.0 (Roche).
Using the method described above in Example 208, HIV-1 expression in PBMC cultures derived from four additional HIV-1 infected donors on cART were tested in the presence of the compounds of Examples 4, 29, 120, 121, 122, 123, 124, resiquimod, and imiquimod.

For test [2], the system named is polyfunctional proliferating CD8 T cells (CFSE low, IFNg+, TNFa+). Briefly: Induction of HIV-specific polyfunctional CD8 T cells by combination with an IDO1 inhibitor (Example 217). It counts as cell-based, human. Here is the method:
PBMCs from 4 HIV-infected donors (Donor IDs 180-183) on suppressive cART were isolated, as described previously, stained with CFSE, and treated with 500 ng/ml 15-mer peptide pools derived from overlapping HIV gag, pol, nef, and env consensus peptides (JPT Peptide Technologies GmbH). PBMC cultures were treated with DMSO or the compound of Example 49 (GS-9620) at 0.1 uM. In some cultures treated with Example 49, the IDO1 small molecule inhibitor, INCB024360, was combined at 2 μM. Cells were incubated at 37° C. for 8 days, then split into duplicate sets and stained in DPBS with LIVE/DEAD Fixable Aqua Dead Cell Stain (Life Technologies). The immune recall response was performed as previously described. FACS was performed on a LSR Fortessa (BD Biosciences) and data analysis was done with FlowJo software (TreeStar). Data was plotted and statistical analysis was done with GraphPad Prism software (GraphPad).

The mark [3] stands for this setting: read-out: Fold HIV-1 Induction, Geometric Mean, 0.156 μM, donors 152-155.
[4] abbreviates: read-out: Fold HIV-1 Induction, Geometric Mean, 2.5 μM, donors 152-155.

Read-outs that look alike come from different tables or passages of the source.

Turning to `Nc1nc(=O)c2sc(=O)n([C@@H]3O[C@H](CO)C[C@H]3O)c2[nH]1` [Example 124, 5-amino-3-((2R,3R,5S)-3-hydroxy-5-(hydroxymethyl)tetrahydrofuran-2-yl)thiazolo[4,5-d]pyrimidine-2,7(3H,4H)-dione, reference compound], the “Donors with ≥2-fold HIV-1 Induction” value is listed as 3 of 4 in test [1] (0.01 μM), 2 of 4 in test [1] (0.156 μM) and 2 of 4 in test [1] (2.5 μM). For the same compound, the fold induction at 0.01 µM in test [1] (donors 152-155) is 3.7. The fold induction at 0.156 µM in test [1] (setting [3]) came to 1.8. Also, the fold induction at 2.5 µM in test [1] (setting [4]) worked out at 1.6.
On to `CCOCc1nc2c(N)nc3ccccc3c2n1CC(C)(C)O` [resiquimod, reference compound], for which the fold induction at 0.01 µM in test [1] (donors 152-155) was 5. Also, the fold induction at 0.156 µM in test [1] (setting [3]) amounted to 6.9. In addition, the fold induction at 2.5 µM in test [1] (setting [4]) came to 7.4.
On to `CC(C)Cn1cnc2c(N)nc3ccccc3c21` [imiquimod, reference compound], for which the “Donors with ≥2-fold HIV-1 Induction” value is reported as 4 of 4 in test [1] (0.01 μM), 4 of 4 in test [1] (0.156 μM) and 3 of 4 in test [1] (2.5 μM). The fold induction at 0.156 µM in test [1] (96 h, read-out: Fold HIV-1 Induction, 0.156 μM, per donor, supernatants Day 4, PBMCs added to pre-plated compounds) amounted to 4.4; in test [1] (setting [3]), 5.4. The fold induction at 0.01 µM in test [1] (donors 152-155) was 4.3. Besides, the fold induction at 2.5 µM in test [1] (setting [4]) is 4.8.
For the compound `COCCOc1cc2c([nH]c(=O)n2Cc2ccc(-c3ccc(CN4CCCC4)cc3)cc2)c(N)n1` [Example 120, 4-amino-6-(2-methoxyethoxy)-1-((4′-(pyrrolidin-1-ylmethyl)-[1,1-biphenyl]-4-yl)methyl)-1H-imidazo[4,5-c]pyridin-2(3H)-one], the “Donors with ≥2-fold HIV-1 Induction” value in test [1] (0.01 μM), in test [1] (0.156 μM) and in test [1] (2.5 μM) was 4 of 4 in each case. For the same compound, the fold induction at 0.01 µM in test [1] (donors 152-155) came out at 3.9. Moreover, in test [1] (setting [3]), the fold induction at 0.156 µM stood at 5.5. In test [1] (setting [4]), the fold induction at 2.5 µM was 4.
As to `COCCOc1nc(N)c2nc(O)n(Cc3ccccc3)c2n1` [Example 122, 6-amino-9-benzyl-2-(2-methoxyethoxy)-9H-purin-8-ol, reference compound], the “Donors with ≥2-fold HIV-1 Induction” value in test [1] (0.01 μM) is on record as 3 of 4; in test [1] (0.156 μM) it was 3 of 4; in test [1] (2.5 μM), 4 of 4. For the same compound, the fold induction at 0.01 µM in test [1] (donors 152-155) is 5. The fold induction at 0.156 µM in test [1] (setting [3]) was 4.8. Besides, in test [1] (setting [4]), the fold induction at 2.5 µM came to 6.9.
On to `COCCOc1nc(N)c2[nH]c(=O)n(Cc3ccc(-c4ccc(CN5CCCC5)cc4)cc3)c2c1Cl` [Example 121, 4-amino-7-chloro-6-(2-methoxyethoxy)-1-((4′-(pyrrolidin-1-ylmethyl)-[1,1-biphenyl]-4-yl)methyl)-1H-imidazo[4,5-c]pyridin-2(3H)-one], for which the “Donors with ≥2-fold HIV-1 Induction” value in test [1] (0.01 μM) was 2 of 4; in test [1] (0.156 μM), 2 of 4; in test [1] (2.5 μM) it was 4 of 4. For the same compound, in test [1] (donors 152-155), the fold induction at 0.01 µM came to 1.3. Moreover, the fold induction at 0.156 µM in test [1] (setting [3]) is 1.3. For the same compound, in test [1] (setting [4]), the fold induction at 2.5 µM is 2.9.
Consider `CCc1nc2c(N)nc3ccccc3c2n1CCCCNS(C)(=O)=O` [Example 123, N-(4-(4-amino-2-ethyl-1H-imidazo[4,5-c]quinolin-1-yl)butyl)methane sulfonamide, reference compound], for which the “Donors with ≥2-fold HIV-1 Induction” value is reported as 2 of 4 in test [1] (0.01 μM), 3 of 4 in test [1] (0.156 μM) and 4 of 4 in test [1] (2.5 μM). The fold induction at 2.5 µM in test [1] (96 h, read-out: Fold HIV-1 Induction, 2.5 μM, per donor, supernatants Day 4, PBMCs added to pre-plated compounds) was 3.3; in test [1] (setting [4]), 5.1. Also, the fold induction at 0.01 µM in test [1] (donors 152-155) came out at 1.9. Further, the fold induction at 0.156 µM in test [1] (setting [3]) turned out to be 3.4.
With `NS(=O)(=O)NCCNc1nonc1C(=NO)Nc1ccc(F)c(Br)c1` [INCB024360, reference compound], in test [2], the “further increase of mean level of polyfunctional proliferating CD8 T cells (TLR7 only vs. TLR7+IDO1)” value amounted to 70%.
